The values below come from patent US12110494B2, “Method for biologically producing sugar alcohol from agar” (Korea University Research and Business Foundation, priority 2018, dated 2024).

Data set [1] in a line: Thermal stability (degree of denaturation over time). In kind it is physicochemical. The note with it: at 4, 25, 50, and 70° C., FIGS. 11A-11D. The method, then:
To confirm whether L-AHGol and L-ABol, which were produced by fermentation and separated by size exclusion chromatography, are actually stable against heat, L-AHG and AB were experimentally compared. The experiment was performed by measuring the degree of denaturation of each substance over time at 4, 25, 50, and 70° C.

In data set [2] the test system is D452-2-L12. Kind of data set: Cell growth inhibition according to AB concentration. The format is cell-based, S. cerevisiae. The following applies: 20 g/L glucose. The text has this: (§1) An experiment for confirming the growth inhibition effect is as follows. […] This is because an increase in AB concentration causes a glucose (carbon source) consumption rate to be decreased (FIG. 6B).

Data set [3] concerns parent D452-2. The data set is described as above. In kind it is cell-based, S. cerevisiae. The note with it: 20 g/L glucose.
Text: as §1

The test system of another data set is D452-2-L124. Described as above. In kind it is cell-based, S. cerevisiae.
Text: as §1

Data set [4] concerns D452-2-L12. Kind of data set: Intracellular AB uptake by LAC12 in minimal medium. The format is cell-based, S. cerevisiae. The note with it: minimal medium (Verduyn), without carbon source, FIG. 4A. The method, then: To confirm the possibility that, […], AB is consumed together or AB is uptaken into the cell by producing energy from the carbon source, […], and then AB consumption experiments were performed for D452-2-L12 and parent D452-2 as a control. […]

Data set [5] concerns parent D452-2. Kind of data set: Intracellular AB uptake in minimal medium, control strain. In kind it is cell-based, S. cerevisiae. The following applies: minimal medium (Verduyn), without carbon source, FIG. 4D. On the procedure: To confirm the possibility that, when a carbon source that may be consumed by a transporter is provided, AB is consumed together or AB is uptaken into the cell by producing energy from the carbon source, […], and then AB consumption experiments were performed for D452-2-L12 and parent D452-2 as a control. As a result, both when glucose (FIG. 4B) was provided and when galactose (FIG. 4C) was provided, only D452-2-L12 was able to consume AB and produced ABol. […] Therefore, D452-2-L12 was able to consume AB by LAC12.

In data set [6] the target is T1, AR expressed by a GRE3 gene derived from S. cerevisiae (Saccharomyces cerevisiae, UniProt P38715).
T1 construct: A target gene GRE3 was amplified from the genomic DNA by PCR; His6 (C); made in house
T1 sequence (P38715 1-327): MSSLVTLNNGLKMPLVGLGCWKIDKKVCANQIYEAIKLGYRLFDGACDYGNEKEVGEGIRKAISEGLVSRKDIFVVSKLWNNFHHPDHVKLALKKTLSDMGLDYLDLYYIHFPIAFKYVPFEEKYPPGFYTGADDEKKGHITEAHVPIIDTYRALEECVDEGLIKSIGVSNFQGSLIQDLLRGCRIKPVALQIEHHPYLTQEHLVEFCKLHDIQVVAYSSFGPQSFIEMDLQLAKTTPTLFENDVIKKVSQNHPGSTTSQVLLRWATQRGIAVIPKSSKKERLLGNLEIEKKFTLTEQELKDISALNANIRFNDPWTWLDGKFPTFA
Kind of data set: Reduction of L-AHG and AB by AR (NADPH decrease at 340 nm). In kind it is biochemical. The note with it: substrate 2 mM, 1 mM NADPH, pH 6.0 sodium phosphate buffer, 30° C., FIG. 3B. On the procedure: An enzymatic reaction was performed in a pH 6.0 sodium phosphate buffer at 30° C. 1 mM NADPH was used as a cofactor, and each substrate was allowed to react at 2 mM and a protein concentration of 9.36 nmol.

The target in data set [7] is T2, β-galactosidase expressed by LAC4 (Kluyveromyces lactis, UniProt P00723).
T2 construct: expressed in transfected cells; host or cells: Saccharomyces cerevisiae D452-2-L124 (crude lysate supernatant)
Kind of data set: AB hydrolysis by LAC4 in coenzyme obtained from lysed cells. The format is biochemical, K. lactis. The note with it: substrate 2 g/L. The method, then:
The AB hydrolysis ability of LAC4 was examined for the constructed strain D452-2-L124 and controls D452-2-L12 and parent D452-2. Since a method of verifying AB hydrolysis is to verify the enzymatic reaction in the cell, a protein, that is, a coenzyme, obtained by growth, collection, and lysis of each cell was used to measure the AB hydrolysis ability. More specifically, each strain was allowed to grow in a YP medium, which is a nutrient broth containing 20 g/L of glucose, at 30° C. and centrifuged in the mid-exponential growth phase at 3,000 g for 10 minutes to collect cells. The collected cells were released with a 20 mM Tris-HCl (pH 7.4) buffer and then lyzed using a sonicator. The lyzed cells were centrifuged at 4° C. and 10,000 g for 10 minutes. The resultant was analyzed by BCA protein concentration quantification to measure the concentration of a coenzyme.
Enzymatic reaction conditions for AB hydrolysis by LAC4 were as follows. AB and lactose as a positive control were used as substrates in the experiment. Each substrate with a concentration of 2 g/L and a coenzyme at 0.5 g/L were reacted in a sodium acetate (pH 6.0) buffer at 30° C. […] This is due to a structural difference between AB and lactose. In this way, it is expected that AB brought into the cell by LAC12 will be hydrolyzed by LAC4.

A further data set relates to Streptococcus mutans. The following applies: reported; cited from earlier work.
The mark [8] stands for this setting: AB 0, 10, 20, 50 g/L, minimal medium, 30° C., FIG. 6A.

T2 sequence (P00723 whole entry): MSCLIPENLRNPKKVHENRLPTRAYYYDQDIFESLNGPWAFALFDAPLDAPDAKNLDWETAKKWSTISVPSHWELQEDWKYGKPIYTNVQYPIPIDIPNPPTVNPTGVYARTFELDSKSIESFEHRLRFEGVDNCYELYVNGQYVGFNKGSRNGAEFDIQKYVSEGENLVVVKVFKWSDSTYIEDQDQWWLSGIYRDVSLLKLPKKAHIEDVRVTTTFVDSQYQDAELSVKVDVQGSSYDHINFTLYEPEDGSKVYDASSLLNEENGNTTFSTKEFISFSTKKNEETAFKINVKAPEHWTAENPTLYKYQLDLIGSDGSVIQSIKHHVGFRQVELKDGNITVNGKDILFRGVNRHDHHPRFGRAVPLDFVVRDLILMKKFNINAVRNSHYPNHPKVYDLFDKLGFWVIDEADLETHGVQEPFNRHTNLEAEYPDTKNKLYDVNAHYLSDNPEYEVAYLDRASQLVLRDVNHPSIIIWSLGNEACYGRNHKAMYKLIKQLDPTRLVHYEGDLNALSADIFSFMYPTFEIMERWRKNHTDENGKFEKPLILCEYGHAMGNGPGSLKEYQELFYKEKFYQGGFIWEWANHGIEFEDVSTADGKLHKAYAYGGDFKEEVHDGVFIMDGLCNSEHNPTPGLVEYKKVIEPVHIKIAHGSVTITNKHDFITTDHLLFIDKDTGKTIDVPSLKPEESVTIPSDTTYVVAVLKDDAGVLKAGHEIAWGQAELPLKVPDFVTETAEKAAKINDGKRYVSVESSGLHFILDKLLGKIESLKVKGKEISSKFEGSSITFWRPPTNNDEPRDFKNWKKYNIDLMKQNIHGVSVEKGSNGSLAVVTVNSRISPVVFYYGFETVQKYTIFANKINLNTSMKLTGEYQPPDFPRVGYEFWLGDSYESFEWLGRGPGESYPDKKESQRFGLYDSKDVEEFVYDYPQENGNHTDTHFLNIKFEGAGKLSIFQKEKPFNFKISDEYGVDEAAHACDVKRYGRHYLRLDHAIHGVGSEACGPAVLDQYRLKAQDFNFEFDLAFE

Turning to `OC[C@@H](O)[C@@H]1OC[C@H](O)[C@H]1O` [L-AHGol, 3,6-anhydro-L-galactitol], the “thermal stability, degree of denaturation over time” value (from here on “thermal stability … over time”) in [1] is “very stable without being denatured even at 70 °C”.

As for `OC[C@H]1O[C@@H](O[C@H]2[C@H]3OC[C@@H]2OC(O)[C@H]3O)[C@H](O)[C@@H](O)[C@H]1O` (mixture of isomers) [AB, agarobiose], the “specific growth rate as AB concentration increased” value in the data set with D452-2-L12 [2] (setting [8]) is given as “decreased as the AB concentration increased”; in the data set on parent D452-2 [3] (setting [8]), “not affected until the AB concentration was 20 g/L”; in the data set with D452-2-L124 (AB 0, 10, 20, 50 g/L, 20 g/L glucose, minimal medium, 30° C., FIG. 6A), “most sharply decreased”. The growth entry in the data set on D452-2-L12 [2] (AB concentration 50 g/L) is listed as “did not grow”; in the data set with parent D452-2 [3] (AB concentration 50 g/L) it was “slowly grew afterward”; with D452-2-L124 (AB concentration 50 g/L, 20 g/L glucose), “did not grow”. Further, the “glucose (carbon source) consumption rate on increase in AB concentration” value in the data set with D452-2-L124 (each strain showed a tendency similar to the specific growth rate, FIG. 6B) is “decreased”. Moreover, the “AB consumption from medium” value in the data set on D452-2-L12 [4] is on record as “intracellularly consumed AB”; in the data set with parent D452-2 [5] it was “did not decrease”. The “thermal stability … over time” value in [1] is “denatured over time at 50 °C or more”. Further, the “reactivity with AR” value in data set [6] is on record as “converted into ABol by AR”. Besides, the AB hydrolysis entry in [7] (coenzyme from D452-2-L124 0.5 g/L, sodium acetate pH 6.0, 30° C., FIG. 5) is given as “best hydrolyzed”; in [7] (coenzymes from strains not expressing LAC4 (D452-2-L12 and parent D452-2), pH 6.0, 30° C.), “hardly hydrolyzed”. Also, in [7] (coenzyme 0.5 g/L, pH 6.0, 30° C.), the “reactivity to β-galactosidase compared with lactose” value is “less reactive”.

Consider `O=C[C@H](O)[C@@H](O)[C@H](O)CO` [xylose], for which the “reactivity with AR” value in data set [6] is “reacted best”.

On to `O=C[C@@H](O)[C@@H]1OC[C@H](O)[C@H]1O` [L-AHG, 3,6-anhydro-L-galactose], for which the antibacterial effect entry with Streptococcus mutans was “antibacterial effect”. Also, the “thermal stability … over time” value in data set [1] is “denatured over time at 50 °C or more”. The “reactivity with AR” value in data set [6] is listed as “then with L-AHG”.

As for `OC[C@@H](O)[C@@H]1OC[C@H](O)[C@H]1O[C@@H]1O[C@H](CO)[C@H](O)[C@H](O)[C@H]1O` [ABol, agarobititol], the “thermal stability … over time” value in data set [1] was “very stable without being denatured even at 70 °C”.
